IC50 data for 14 molecules are collected here from US9737542B2, “Pyrrolotriazine kinase inhibitors” (BRISTOL-MYERS SQUIBB COMPANY, priority 2013, dated 2017).

For this assay, the target named is GST-Xa-hAAK1 (Homo sapiens (Human), UniProt Q2M2I8). The assay can be described thus: AAK1 Kinase Assay. Conditions: ATP 22 μM, 3 hours at room temperature. The class given is biochemical.
Sequence of GST-Xa-hAAK1 (Q2M2I8 whole entry): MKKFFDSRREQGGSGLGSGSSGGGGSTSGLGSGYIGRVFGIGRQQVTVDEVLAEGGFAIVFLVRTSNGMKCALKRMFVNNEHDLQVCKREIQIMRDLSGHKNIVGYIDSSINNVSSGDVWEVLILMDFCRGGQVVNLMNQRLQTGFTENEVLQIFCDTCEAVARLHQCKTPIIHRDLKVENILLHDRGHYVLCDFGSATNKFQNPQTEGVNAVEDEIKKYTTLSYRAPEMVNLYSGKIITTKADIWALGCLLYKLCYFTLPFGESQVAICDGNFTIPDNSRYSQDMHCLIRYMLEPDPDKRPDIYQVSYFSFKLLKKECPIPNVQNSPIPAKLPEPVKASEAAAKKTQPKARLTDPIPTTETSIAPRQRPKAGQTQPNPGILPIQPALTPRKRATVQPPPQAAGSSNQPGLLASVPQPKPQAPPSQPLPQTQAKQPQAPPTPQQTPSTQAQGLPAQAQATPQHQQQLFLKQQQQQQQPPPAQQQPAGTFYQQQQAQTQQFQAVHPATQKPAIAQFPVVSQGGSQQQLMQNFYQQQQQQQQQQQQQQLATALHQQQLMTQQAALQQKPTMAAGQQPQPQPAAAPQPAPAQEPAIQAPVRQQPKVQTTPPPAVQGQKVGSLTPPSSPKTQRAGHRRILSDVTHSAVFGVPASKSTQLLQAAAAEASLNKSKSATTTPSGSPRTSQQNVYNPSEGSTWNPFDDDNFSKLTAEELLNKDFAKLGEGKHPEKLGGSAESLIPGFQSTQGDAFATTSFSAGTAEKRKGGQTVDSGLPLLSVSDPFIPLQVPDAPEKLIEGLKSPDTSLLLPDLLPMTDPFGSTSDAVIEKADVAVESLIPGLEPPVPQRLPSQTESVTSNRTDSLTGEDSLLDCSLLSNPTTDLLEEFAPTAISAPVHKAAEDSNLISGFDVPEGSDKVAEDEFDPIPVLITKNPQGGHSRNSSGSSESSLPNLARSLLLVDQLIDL

For the molecule `CC(C)n1nnc(-c2cc(O)cc(Nc3ncnn4ccc(CN5CCC(N)CC5)c34)c2)n1` [Example 36, 3-((5-((4-aminopiperidin-1-yl)methyl)pyrrolo[2,1-f][1,2,4]triazin-4-yl)amino)-5-(2-isopropyl-2H-tetrazol-5-yl)phenol], the IC50 worked out at 3.3 nM.

As to `CC(C)c1nnc(-c2cccc(Nc3ncnn4ccc(CN5CCC(N)C5)c34)c2)s1` (centres unmarked) [Example 32, 5-((3-aminopyrrolidin-1-yl)methyl)-N-(3-(5-isopropyl-1,3,4-thiadiazol-2-yl)phenyl)pyrrolo[2,1-f][1,2,4]triazin-4-amine], for the setting “listed as IC50 ranges”, the IC50 lay within 100 to 1000 nM.

In turn, `CC(C)c1nc(-c2cc(O)cc(Nc3ncnn4cccc34)c2)no1` [Example 85, 3-(5-isopropyl-1,2,4-oxadiazol-3-yl)-5-(pyrrolo[2,1-f][1,2,4]triazin-4-ylamino)phenol] returned an IC50 of 82 nM.

Where the note is “listed as IC50 ranges”, `CC(C)c1nnc(-c2cccc(Nc3ncnn4ccc(CN5CCOCC5)c34)c2)s1` [Example 56, N-(3-(5-isopropyl-1,3,4-thiadiazol-2-yl)phenyl)-5-(morpholinomethyl)pyrrolo[2,1-f][1,2,4]triazin-4-amine] returned an IC50 of 1000 to 5000 nM.

Take `CC(C)c1nnc(-c2cccc(Nc3ncnn4cccc34)c2)o1` [Example 80, N-(3-(5-isopropyl-1,3,4-oxadiazol-2-yl)phenyl)pyrrolo[2,1-f][1,2,4]triazin-4-amine]: the IC50 was 384 nM.

For the molecule `COC(=O)c1cn2ncnc(Nc3cccc(-c4nnn(C(C)C)n4)c3)c2c1CN1CCC(N)CC1` [Example 111, methyl 5-((4-aminopiperidin-1-yl)methyl)-4-((3-(2-isopropyl-2H-tetrazol-5-yl)phenyl)amino)pyrrolo[2,1-f][1,2,4]triazine-6-carboxylate], the IC50 was found to be 16 nM.

`CC(C)(CO)c1nc(-c2cccc(Nc3ncnn4cccc34)c2)no1` [Example 81, 2-methyl-2-(3-(3-(pyrrolo[2,1-f][1,2,4]triazin-4-ylamino)phenyl)-1,2,4-oxadiazol-5-yl)propan-1-ol]: half-maximal inhibition (IC50) was put at 413 nM.

For `CNC1CCN(Cc2ccn3ncnc(Nc4cccc(-c5noc(C(C)C)n5)c4)c23)CC1` [Example 39, N-(3-(5-isopropyl-1,2,4-oxadiazol-3-yl)phenyl)-5-((4-(methylamino)piperidin-1-yl)methyl)pyrrolo[2,1-f][1,2,4]triazin-4-amine], the IC50 (listed as IC50 ranges) was 10 to 100 nM.

Molecule `CC(C)n1nnc(-c2cccc(Nc3ncnn4ccc(CN(C)C)c34)c2)n1` [Example 102, 5-((dimethylamino)methyl)-N-(3-(2-isopropyl-2H-tetrazol-5-yl)phenyl)pyrrolo[2,1-f][1,2,4]triazin-4-amine] returned an IC50 of 49 nM. This lies in the double-digit nanomolar range.

Take `C=Cc1cccc(Nc2ncnn3ccc(CN4CCC(N)CC4)c23)c1` [Example 4, 5-((4-aminopiperidin-1-yl)methyl)-N-(3-vinylphenyl)pyrrolo[2,1-f][1,2,4]triazin-4-amine]: the IC50 (listed as IC50 ranges) lay in the range of 100 to 1000 nM.

`COCc1ccn2ncnc(Nc3cccc(-c4nnn(C(C)C)n4)c3)c12` [Example 100, N-(3-(2-isopropyl-2H-tetrazol-5-yl)phenyl)-5-(methoxymethyl)pyrrolo[2,1-f][1,2,4]triazin-4-amine] displayed an IC50 of 54 nM.

On to `NC1CCN(Cc2cc(Br)n3ncnc(Nc4cccc(-c5cnco5)c4)c23)CC1` [Example 68, 5-((4-aminopiperidin-1-yl)methyl)-7-bromo-N-(3-(oxazol-5-yl)phenyl)pyrrolo[2,1-f][1,2,4]triazin-4-amine], for which the IC50 (listed as IC50 ranges) was 1000 to 5000 nM.

Consider `NC1CCN(Cc2ccn3ncnc(Nc4cccc(-c5csnn5)c4)c23)CC1` [Example 14, N-(3-(1,2,3-thiadiazol-4-yl)phenyl)-5-((4-aminopiperidin-1-yl)methyl)pyrrolo[2,1-f][1,2,4]triazin-4-amine], for which the IC50 (listed as IC50 ranges) fell in the range of 100 to 1000 nM.

Molecule `CC(C)n1nnc(-c2cccc(Nc3ncnn4ccc(C(=O)NCC#N)c34)c2)n1` [Example 107, N-(cyanomethyl)-4-((3-(2-isopropyl-2H-tetrazol-5-yl)phenyl)amino)pyrrolo[2,1-f][1,2,4]triazine-5-carboxamide] gave an IC50 of 469 nM.
